Assay results reported in patent US10407467B2, “Polymyxin derivatives and their use in combination therapy together with different antibiotics” (priority 2013, dated 2019).
Values after ≈ are worked out from the molar mass of the structure shown. Values joined by “and” are separate entries in the source; they are usually repeats but may differ in a detail not shown here. Identical values can stand only once. Counter-ions that a name gives are not always drawn. Like-named read-outs stand apart in the source and are kept apart here. Bridge positions count the residues as written; N and C are the ends. Square brackets hold non-standard residues; d marks the D form. Peptide text beside a SMILES is read from it. * marks the point of attachment. Dab = NCC[C@H](N)C(=O)O; X3 = O=C([C@H]1CCCNC1)*

Experiments:
Acinetobacter baumannii [1] = assay: MIC, compound in combination with a second agent (broth microdilution); assay type: cell-based; conditions: 1:1 (wt:wt) combination with Rifampicin; for MIC: Acinetobacter baumannii
Outline: (§1)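 MIC = combined concentration of test compound plus partner agent, mixed at equal mass (1:1 w/w, salt form as used). Up to four strains per species; colonies adjusted to 0.5 McFarland. Run in duplicate; >2-fold disagreement invalidates the run.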

Escherichia coli [2] = assay: as above; assay type: cell-based; conditions: 1:1 (wt:wt) combination with Rifampicin; for MIC: Escherichia coli
Outline: as §1

Klebsiella pneumoniae [3] = assay: as above; assay type: cell-based; conditions: 1:1 (wt:wt) combination with Rifampicin; for MIC: Klebsiella pneumoniae
Outline: as §1

Pseudomonas aeruginosa [4] = assay: as above; assay type: cell-based; conditions: 1:1 (wt:wt) combination with Rifampicin; for MIC: Pseudomonas aeruginosa
Outline: as §1

Acinetobacter baumannii [5] = assay: MIC, sole activity (no second agent); assay type: cell-based; conditions: Table 6A; no second agent; different supplier of Cation-adjusted MHB
Outline: (§2)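 First, isolated colonies grown 18-24 hours on Mueller-Hinton agar were suspended to 0.5 McFarland; next, up to four strains per pathogen were tested in duplicate in cation-adjusted MHB; finally, the lower concordant value or modal repeat value was reported against Polymyxin B.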

Escherichia coli [6] = assay: MIC, sole activity (no second agent); assay type: cell-based; conditions: Table 6A; no second agent; different supplier of Cation-adjusted MHB
Outline: as §2

Klebsiella pneumoniae [7] = assay: MIC, sole activity (no second agent); assay type: cell-based; conditions: Table 6A; no second agent; different supplier of Cation-adjusted MHB
Outline: as §2

Pseudomonas aeruginosa [8] = assay: MIC, sole activity (no second agent); assay type: cell-based; conditions: Table 6A; no second agent; different supplier of Cation-adjusted MHB
Outline: as §2

HK-2 cell line = assay: In vitro renal cell toxicity assay (resazurin reduction); assay type: cell-based, human
P. aeruginosa ATCC27853 = assay type: in vivo, Pseudomonas aeruginosa; conditions: ATCC27853, in vivo, iv, 5 mg/kg, 6 h
Protocol: Compounds were administered in solution by intravenous (IV) bolus injection into the lateral tail vein. […] At 1 hour post infection, 4 animals were humanely euthanized using pentabarbitone overdose to provide a pre-treatment control group. At 9 hours post infection, the clinical condition of all animals was assessed prior to them being humanely euthanized by pentabarbitone overdose. Animal weight was determined before both thighs were removed and weighed individually. Individual thigh tissue samples were homogenized in ice cold sterile phosphate buffered saline. Thigh homogenates were then quantitatively cultured onto CLED agar and incubated at 37° C. for 24 hours before colonies were counted.

K. pneumoniae = assay: MIC against panel of strains enriched for resistance to colistin or polymyxin B (CLSI), alone or 1:1 with rifampicin; assay type: cell-based, Klebsiella pneumoniae; conditions: one value per strain of the panel
Protocol: (§3) […] For example, a well at 2 μg/mL consisted of 1 μg/mL test compound and 1 μg/mL rifampicin.
(§4) • where n indicates the number of strains within the panel for a particular organism.

P. aeruginosa = assay: as above; assay type: cell-based, Pseudomonas aeruginosa; conditions: one value per strain of the panel
Protocol: as §3, §4

[9] = MIC is total drug concentration

CC(C)C[C@@H]1NC(=O)[C@@H](Cc2ccccc2)NC(=O)[C@H](CCN)NC(=O)[C@@H](NC(=O)[C@H](CCN)NC(=O)[C@@H](NC(=O)[C@H]2CCCNC2)[C@@H](C)O)CCNC(=O)[C@H]([C@@H](C)O)NC(=O)[C@H](CCN)NC(=O)[C@H](CCN)NC1=O [Example 37, (S)-Piperidine-3-carbonyl polymyxin B nonapeptide, trifluoroacetate salt] (X3-T[Dab][Dab][Dab][dF]L[Dab][Dab]T; lactam 3-C)
MIC A. baumannii ATCC BAA-747 (Acinetobacter baumannii [1]; MIC = total drug concentration, strain ATCC BAA-747): ≤0.06 micrograms/mL | MIC A. baumannii CCUG57249 (Acinetobacter baumannii [1]; MIC = total drug concentration, strain CCUG57249): ≤0.06 micrograms/mL | MIC A. baumannii NCTC 13423 (Acinetobacter baumannii [1]; MIC = total drug concentration, strain NCTC 13423): ≤0.06 micrograms/mL | MIC A. baumannii NCTC 13424 (Acinetobacter baumannii [1]; MIC = total drug concentration, strain NCTC 13424): ≤0.06 micrograms/mL | MIC A. baumannii ATCC BAA-747 (Acinetobacter baumannii [1]; [9]): ≤0.06 micrograms/mL | MIC A. baumannii CCUG57249 (Acinetobacter baumannii [1]; [9]): ≤0.06 micrograms/mL | MIC A. baumannii NCTC 13423 (Acinetobacter baumannii [1]; [9]): ≤0.06 micrograms/mL | MIC A. baumannii NCTC 13424 (Acinetobacter baumannii [1]; [9]): ≤0.06 micrograms/mL | MIC E. coli ATCC25922 (Escherichia coli [2]; MIC = total drug concentration, strain ATCC25922): 0.125 micrograms/mL | MIC E. coli NCTC9001 (Escherichia coli [2]; MIC = total drug concentration, strain NCTC9001): ≤0.06 micrograms/mL | MIC E. coli ATCC25922 (Escherichia coli [2]; [9]): 0.125 micrograms/mL | MIC E. coli NCTC9001 (Escherichia coli [2]; [9]): ≤0.06 micrograms/mL | MIC K. pneumoniae ATCC-BAA-2146 (Klebsiella pneumoniae [3]; MIC = total drug concentration, strain ATCC-BAA-2146): 0.125 micrograms/mL | MIC K. pneumoniae CCUG-59348 (Klebsiella pneumoniae [3]; MIC = total drug concentration, strain CCUG-59348): 2 micrograms/mL | MIC K. pneumoniae NCTC 13438 (Klebsiella pneumoniae [3]; MIC = total drug concentration, strain NCTC 13438): 0.125 micrograms/mL | MIC K. pneumoniae ATCC-BAA-2146 (Klebsiella pneumoniae [3]; [9]): 0.125 micrograms/mL | MIC K. pneumoniae CCUG-59348 (Klebsiella pneumoniae [3]; [9]): 2 micrograms/mL | MIC K. pneumoniae NCTC 13438 (Klebsiella pneumoniae [3]; [9]): 0.125 micrograms/mL | MIC P. aeruginosa ATCC 27853 (Pseudomonas aeruginosa [4]; MIC = total drug concentration, strain ATCC 27853): ≤0.06 micrograms/mL | MIC P. aeruginosa ATCC CRM-9027 (Pseudomonas aeruginosa [4]; MIC = total drug concentration, strain ATCC CRM-9027): 0.125 micrograms/mL | MIC P. aeruginosa ATCC-47 (Pseudomonas aeruginosa [4]; MIC = total drug concentration, strain ATCC-47): ≤0.06 micrograms/mL | MIC P. aeruginosa CCUG 59626 (Pseudomonas aeruginosa [4]; MIC = total drug concentration, strain CCUG 59626): ≤0.06 micrograms/mL | MIC P. aeruginosa ATCC 27853 (Pseudomonas aeruginosa [4]; [9]): ≤0.06 micrograms/mL | MIC P. aeruginosa ATCC CRM-9027 (Pseudomonas aeruginosa [4]; [9]): 0.125 micrograms/mL | MIC P. aeruginosa ATCC-47 (Pseudomonas aeruginosa [4]; [9]): ≤0.06 micrograms/mL | MIC P. aeruginosa CCUG 59626 (Pseudomonas aeruginosa [4]; [9]): ≤0.06 micrograms/mL | MIC A. baumannii ATCC BAA-747 (Acinetobacter baumannii [5]): 2 micrograms/mL | MIC A. baumannii NCTC 13424 (Acinetobacter baumannii [5]): 1 micrograms/mL | MIC E. coli ATCC25922 (Escherichia coli [6]): 0.5 micrograms/mL | MIC E. coli NCTC 13441 (Escherichia coli [6]): 0.5 micrograms/mL | MIC K. pneumoniae ATCC 4352 (Klebsiella pneumoniae [7]): 0.25 micrograms/mL | MIC K. pneumoniae ATCC BAA-2146 (Klebsiella pneumoniae [7]): 0.25 micrograms/mL | MIC P. aeruginosa ATCC 27853 (Pseudomonas aeruginosa [8]): 0.5 micrograms/mL | MIC P. aeruginosa CCUG 59347 (Pseudomonas aeruginosa [8]): 2 micrograms/mL | HK-2 IC50 rel to PMB (HK-2 cell line): 21 | log reduction in bacterial counts compared to non-treated control (P. aeruginosa ATCC27853): 1.75 log

CO[C@H]1/C=C/O[C@@]2(C)Oc3c(C)c(O)c4c(O)c(c(/C=N/N5CCN(C)CC5)c(O)c4c3C2=O)NC(=O)/C(C)=C\C=C\[C@H](C)[C@H](O)[C@@H](C)[C@@H](O)[C@@H](C)[C@H](OC(C)=O)[C@@H]1C [Rifampicin, reference compound]
MIC (Acinetobacter baumannii [1]; ATCCBAA747, MIC = total drug concentration, strain ATCC BAA-747, read-out: MIC A. baumannii ATCC BAA-747): 2 µg/mL | MIC (Acinetobacter baumannii [1]; NCTC13423, MIC = total drug concentration, strain NCTC 13423, read-out: MIC A. baumannii NCTC 13423): 1 µg/mL | MIC (Acinetobacter baumannii [1]; NCTC13424, MIC = total drug concentration, strain NCTC 13424, read-out: MIC A. baumannii NCTC 13424): 1 µg/mL | MIC (Acinetobacter baumannii [1]; MIC = total drug concentration, strain CCUG57249, read-out: MIC A. baumannii CCUG57249): 2 µg/mL | MIC (Escherichia coli [2]; MIC = total drug concentration, strain ATCC25922, read-out: MIC E. coli ATCC25922): 4 µg/mL | MIC (Escherichia coli [2]; MIC = total drug concentration, strain NCTC9001, read-out: MIC E. coli NCTC9001): 4 µg/mL | MIC (Klebsiella pneumoniae [3]; ATCC4352, MIC = total drug concentration, strain ATCC 4352, read-out: MIC K. pneumoniae ATCC 4352): 8 µg/mL | MIC (Klebsiella pneumoniae [3]; ATCCBAA2146, MIC = total drug concentration, strain ATCC-BAA-2146, read-out: MIC K. pneumoniae ATCC-BAA-2146): 16 µg/mL | MIC (Klebsiella pneumoniae [3]; CCUG59348, MIC = total drug concentration, strain CCUG-59348, read-out: MIC K. pneumoniae CCUG-59348): 32 µg/mL | MIC (Klebsiella pneumoniae [3]; NCTC13438, MIC = total drug concentration, strain NCTC 13438, read-out: MIC K. pneumoniae NCTC 13438): 16 µg/mL | MIC (Pseudomonas aeruginosa [4]; ATCC47, MIC = total drug concentration, strain ATCC-47, read-out: MIC P. aeruginosa ATCC-47): 16 µg/mL | MIC (Pseudomonas aeruginosa [4]; ATCC27853, MIC = total drug concentration, strain ATCC 27853, read-out: MIC P. aeruginosa ATCC 27853): 16 µg/mL | MIC (Pseudomonas aeruginosa [4]; CCUG59626, MIC = total drug concentration, strain CCUG 59626, read-out: MIC P. aeruginosa CCUG 59626): 16 µg/mL | MIC (Pseudomonas aeruginosa [4]; MIC = total drug concentration, strain ATCC CRM-9027, read-out: MIC P. aeruginosa ATCC CRM-9027): 16 µg/mL | MIC (K. pneumoniae; Klebsiella pneumoniae, read-out: MIC Klebsiella pneumoniae (n = 11), agent alone): 16 µg/mL (≈ 19.4 µM) | MIC Klebsiella pneumoniae (n = 11) (K. pneumoniae; agent alone): 32 micrograms/mL and > 32 micrograms/mL and >32, 32, 32, micrograms/mL and 32, 32, >32, micrograms/mL and >32, >32 micrograms/mL | MIC (P. aeruginosa; Pseudomonas aeruginosa, read-out: MIC Pseudomonas aeruginosa (n = 6), agent alone): 32 µg/mL (≈ 38.9 µM) | MIC Pseudomonas aeruginosa (n = 6) (P. aeruginosa; agent alone): 16 micrograms/mL and 32, 32, 32 micrograms/mL
